Data taken from patent US12692259B2, “Morpholine-containing and piperazine-containing CXCR4 modulators and uses related thereto” (Emory University, priority 2021, dated 2026).

How the values were obtained:
[1] = Metabolic stability assay, human liver microsomes (HLM); type: in vitro ADME; details: for half-life at 3 µM: pH 7.4, read-out: Liver Microsomes T1/2 (min) H
Description: Controls were processed and analyzed like the test compounds.

PAMPA assay = type: in vitro ADME; details: pH 7.4
Experimental: PAMPA assay was performed by BioAssay Systems Services or Bristol Myers Squibb. The method used by BioAssay Systems Services is described below.
Stock solutions in DMSO for all compounds (10 mM) were thawed. The assay was performed in duplicate by following the PAMPA-096 procedure for sample plating. 4% Lecithin in dodecane solution was prepared by resuspending the dried lecithin with 750 μL dodecane. PBS pH 7.4 was used as the diluent. Two sets of plates and equilibrium solutions were incubated for 4 hours at room temperature. Acceptor and equilibrium solutions were analyzed in a UV plate. OD280 nm was used for High Permeability Control (chloramphenicol). OD270 nm was used for Medium Permeability Control (diclofenac) and Low Permeability Control (theophylline). OD254 nm was used for the test compounds.
Data analysis was performed by using the peak absorbance for each respective test compound and Permeability Control to determine the Permeability Rate (Pe) via the following equation: […]
where ODA is the absorbance of Acceptor Solution, ODE is the absorbance of the Equilibrium Standard, and C is determined by the equation below: […]
where Donor Volume (VD) is 0.2 cm^3, Acceptor Volume (VA) is 0.3 cm^3, and Membrane Area (Area) is 0.24 cm^2.

CYP3A4 = biological target: T1, CYP3A4 (Homo sapiens, UniProt P08684); assay: Fluorometric CYP450 inhibition assay, CYP3A4; type: in vitro ADME; details: read-out: CYP450 IC50 (μM) 3A4
T1 construct: purchased Corning; host or cells: insect cells (microsomes)
T1 sequence (P08684 whole entry): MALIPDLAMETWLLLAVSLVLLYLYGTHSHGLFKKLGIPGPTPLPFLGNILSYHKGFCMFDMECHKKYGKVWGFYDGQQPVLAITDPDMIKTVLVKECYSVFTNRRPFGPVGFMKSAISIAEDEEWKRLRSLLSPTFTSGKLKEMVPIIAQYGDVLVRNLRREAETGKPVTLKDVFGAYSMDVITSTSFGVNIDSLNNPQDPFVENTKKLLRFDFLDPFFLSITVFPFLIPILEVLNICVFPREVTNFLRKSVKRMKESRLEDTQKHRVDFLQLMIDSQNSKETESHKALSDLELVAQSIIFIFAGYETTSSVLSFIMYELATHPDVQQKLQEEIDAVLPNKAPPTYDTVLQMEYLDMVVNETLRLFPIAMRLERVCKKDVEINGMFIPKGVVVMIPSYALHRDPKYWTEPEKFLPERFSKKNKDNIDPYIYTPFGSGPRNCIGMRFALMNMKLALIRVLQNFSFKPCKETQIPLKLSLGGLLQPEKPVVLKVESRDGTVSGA
Experimental: (§1) The CYP450 inhibition assays utilized microsomes from insect cells expressing human recombinant individual cDNA-expressed CYP isoforms 3A4 and 2D6, as well as the fluorogenic probe that produces fluorescent metabolite. Standard inhibitors were co-incubated with fluorogenic substrates and their inhibitory potential (IC50) was determined. Assay conditions in terms of CYP450 protein concentration and time of incubation were standardized, enzyme kinetics parameters of each fluorescent probe substrate were estimated and IC50 values of inhibitors were determined and validated on different days to check reproducibility.
(§2) A 100 mM sodium phosphate buffer was prepared and adjusted to pH 7.4. In a separate falcon tube, a 2× enzyme/substrate (E/S) solution was prepared in phosphate buffer. The final concentration of CYP2D6 (CORNING®) and 7-amido-4-methyl coumaric acid (AMMC) was 10 nM and 4 μM, and CYP3A4 (CORNING®) and 7-benzyloxy-4-(trifluoromethyl) coumarin (BFC) was 20 nM and 40 μM, respectively. In a separate falcon tube, a 2×NADPH regenerating system (NRS) was prepared in phosphate buffer.
(§3) Both enzymatic assays were conducted in a 96-well microtiter plate (Black, CORNING® COSTAR®) with a final volume of 100 μL. Preparation of the plate began with the addition of 74 μL of the E/S in the first well, and 50 μL to all subsequent wells (from 2-11). […] A 1:3 serial dilution of the test compound was conducted by removing 25 μL from the first well and diluting it with the second and so forth until the tenth row. Final concentrations yielded a range from 200 μM-0.01 μM. Well no. 11 contained no inhibitor, and well no. 12 contained no enzyme. Both were used as controls for background fluorescence. The plate was incubated for 30 min at 37° C. After incubation, the reaction was initiated by the addition of 50 μL of the 2×NRS to each well.
(§4) Immediately (within 1 min) the fluorescence was measured using a microplate reader (BIOTEK® Synergy Neo2). […] Data was exported and analyzed using Graph Pad Prism 7. […] The IC50 value was derived after the data was fitted on a 10-point curve using a four-parameter logistic regression model.

in vitro = details: mouse, pH 7.4; for Liver Microsomes % rem. @ 10 min. M: 3 µM; for half-life at 3 µM: microsomes
Experimental: Metabolic stability assay was performed at Emory University's Department of Chemistry or by Bristol Myers Squibb. The method used by Emory University's Department of Chemistry is described below.
Each method was developed in the presence of an internal standard (ISTD) d5-7-ethoxy coumarin. The column temperature was maintained at 40° C. for most of the samples otherwise noted. The detection was operated in the Agilent JetStream electrospray positive ionization using multiple reaction monitoring mode (MRM).
Other MS conditions were as follows: dwell time 100 ms; gas flow 10 L/min; nebulizer pressure 45 psi; delta EMV 200 V; fragmentor voltage and collision energy for individual compounds vary.
Test compounds were dissolved in 100% DMSO or 100% MeOH to make 10 mM stock solutions. Verapamil (Sigma Aldrich) aided as a positive control and was dissolved in 100% DMSO to make 10 mM stock solutions. The 10 mM stock solution of test and control compounds were further diluted in potassium phosphate buffer (100 mM, pH 7.4) to 500 μM to ensure the organic solvent content was <0.2%. Human liver microsomes (HLMs) were purchased from Xenotech at 20 mg/mL. NADPH (Sigma Aldrich) 10 mM stocks were prepared in deionized water.
The HLM assay was prepared in a 1.5 mL Eppendorf tube with a final volume of 1100 μL for duplicate runs. Each reaction contained phosphate buffer (928.4 μL), liver microsomes (55 μL), and test compound resulting in a final concentration of 3 μM (6.6 μL of 500 μM). The reaction was initiated with 110 μL of 10 mM NADPH. […] Before centrifugation each of the aliquoted tubes were vortexed to make sure compounds were in the solution. The aliquots were centrifuged at 12,000 g for 5 min and the supernatant removed and placed in an LC-MS vial. Each time point was assessed using LC-MS and the area, based on the extracted ion, was integrated with respect to the ISTD. […] A no-NADPH negative control with test or control compound was performed in a single run (150 μL) at the longest time point. Controls were processed and analyzed like the test compounds. Each time point was run in duplicates followed by in-between blank washes to avoid the carryover and to equilibrate the column.
The MLM assay was performed using the same procedures as those described above for the HLM assay.

CYP2D6 = biological target: T2, CYP2D6 (Homo sapiens, UniProt P10635); assay: Fluorometric CYP450 inhibition assay, CYP2D6; type: in vitro ADME; details: read-out: CYP450 IC50 (μM) 2D6
T2 construct: purchased Corning; host or cells: insect cells (microsomes)
T2 sequence (P10635 whole entry): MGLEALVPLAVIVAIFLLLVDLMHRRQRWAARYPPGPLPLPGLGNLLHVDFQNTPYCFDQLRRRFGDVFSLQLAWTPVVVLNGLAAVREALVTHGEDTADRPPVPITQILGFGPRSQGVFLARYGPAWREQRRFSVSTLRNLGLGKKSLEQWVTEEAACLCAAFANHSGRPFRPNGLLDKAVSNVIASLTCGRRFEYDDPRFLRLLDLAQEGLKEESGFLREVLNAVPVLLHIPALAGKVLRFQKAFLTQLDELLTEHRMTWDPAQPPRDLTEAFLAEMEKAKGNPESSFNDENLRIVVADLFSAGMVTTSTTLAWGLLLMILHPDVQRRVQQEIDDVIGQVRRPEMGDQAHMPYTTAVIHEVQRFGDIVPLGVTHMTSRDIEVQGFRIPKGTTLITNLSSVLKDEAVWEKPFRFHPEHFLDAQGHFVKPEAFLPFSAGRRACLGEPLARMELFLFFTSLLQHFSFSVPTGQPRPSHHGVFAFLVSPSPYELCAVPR
Experimental: as §1, §2, §3, §4

SMILES	Liver Microsomes % rem. @ 10 min. H [1] [%]	Papp at 4 h (PAMPA assay) [×10⁻⁶ cm/s]	IC50 (CYP3A4) [µM]	Liver Microsomes % rem. @ 10 min. M (in vitro) [%]	IC50 (CYP2D6) [µM]	half-life at 3 µM [1] [min]	half-life at 3 µM (in vitro) [min]
CN1CCN(c2cccc3c2C[C@@H](CN(C)[C@H]2CCCc4cccnc42)NC3)C(=O)C1 [EMU-251, 4-methyl-1-((S)-3-((methyl((S)-5,6,7,8-tetrahydroquinolin-8-yl)amino)methyl)-1,2,3,4-tetrahydroisoquinolin-5-yl)piperazin-2-one]	–	14.6	48.4	–	> 50	288	126
CN(C[C@H]1Cc2c(cccc2N2CCNC(=O)C2)CN1)[C@H]1CCCc2cccnc21 [EMU-254, 4-((R)-3-((methyl((S)-5,6,7,8-tetrahydroquinolin-8-yl)amino)methyl)-1,2,3,4-tetrahydroisoquinolin-5-yl)piperazin-2-one]	–	11.8	14.3	–	8.1	37	35
CCOC(=O)N1CCN(c2cccc3c2C[C@H](CN(C)[C@H]2CCCc4cccnc42)NC3)CC1 [EMU-261, ethyl 4-((R)-3-((methyl((S)-5,6,7,8-tetrahydroquinolin-8-yl)amino)methyl)-1,2,3,4-tetrahydroisoquinolin-5-yl)piperazine-1-carboxylate]	–	14.6	7.82	–	4.47	4.9	7.4
CC(=O)N1CCN(c2cccc3c2C[C@H](CN(C)[C@H]2CCCc4cccnc42)NC3)CC1 [EMU-262, 1-(4-((R)-3-((methyl((S)-5,6,7,8-tetrahydroquinolin-8-yl)amino)methyl)-1,2,3,4-tetrahydroisoquinolin-5-yl)piperazin-1-yl)ethan-1-one]	–	14.6	16.3	–	> 50	16	5.5
CN(C[C@H]1Cc2c(cccc2N2CCN(S(C)(=O)=O)CC2)CN1)[C@H]1CCCc2cccnc21 [EMU-263, (S)—N-methyl-N—(((R)-5-(4-(methylsulfonyl)piperazin-1-yl)-1,2,3,4-tetrahydroisoquinolin-3-yl)methyl)-5,6,7,8-tetrahydroquinolin-8-amine]	–	13.4	24.1	–	34.4	10	3
CN1CCN(c2cccc3c2CC(CN(C)[C@H]2CCOc4cccnc42)NC3)CC1 (stereo partly drawn) [EMU-320, (4S)—N-methyl-N-((5-(4-methylpiperazin-1-yl)-1,2,3,4-tetrahydroisoquinolin-3-yl)methyl)-3,4-dihydro-2H-pyrano[3,2-b]pyridin-4-amine]	74.7	16.7	3.2	91.6	–	–	–

The remaining lines, values ahead:

Liver Microsomes % rem. @ 10 min. H [1] [%]	Papp at 4 h (PAMPA assay) [×10⁻⁶ cm/s]	IC50 (CYP3A4) [µM]	Liver Microsomes % rem. @ 10 min. M (in vitro) [%]	IC50 (CYP2D6) [µM]	half-life at 3 µM [1] [min]	half-life at 3 µM (in vitro) [min]	SMILES
48.5	10.6	3.5	36.9	> 20	–	–	CN(C[C@H]1Cc2c(cccc2N2CC3COC2C3)CN1)[C@H]1CCCc2cccnc21 (stereo in doubt) [EMU-324, (S)—N—(((R)-5-((1S,4R)-2-oxa-6-azabicyclo[2.2.1]heptan-6-yl)-1,2,3,4-tetrahydroisoquinolin-3-yl)methyl)-N-methyl-5,6,7,8-tetrahydroquinolin-8-amine]
–	13.6	13.7	–	43.1	16	17	CN1CCN(c2cccc3c2C[C@H](CN(C)[C@H]2CCCc4cccnc42)NC3)CC1=O [EMU-255, 1-methyl-4-((R)-3-((methyl((S)-5,6,7,8-tetrahydroquinolin-8-yl)amino)methyl)-1,2,3,4-tetrahydroisoquinolin-5-yl)piperazin-2-one]
23.7	–	> 20	33.8	4.1	–	–	CN(C[C@H]1Cc2c(cccc2N2CCN3CCOC[C@H]3C2)CN1)[C@H]1CCCc2cccnc21 [EMU-343, (S)—N—(((R)-5-((R)-hexahydropyrazino[2,1-c][1,4]oxazin-8(1H)-yl)-1,2,3,4-tetrahydroisoquinolin-3-yl)methyl)-N-methyl-5,6,7,8-tetrahydroquinolin-8-amine]
